Measured values as given in patent US20090215028A1, “Methods and Compositions for Determining Anti-HIV Drug Susceptibility and Replication Capacity of HIV” (priority 2005, published 2009).

What was measured:
Format in all cases: cell-based
[1] = tested on: HIV mutants comprising site-directed mutations in integrase; test: Anti-HIV drug susceptibility assay (luciferase test vectors, 293 cells), site-directed integrase mutants; details: FIG. 2
Description: A retroviral vector designed to measure antiretroviral drug susceptibility was constructed by using an infectious molecular clone of HIV-1. The vector, referred to herein as an indicator gene viral vector (IGVV), is replication defective and contains a luciferase expression cassette inserted within a deleted region of the envelope (env) gene. The IGVV is described in U.S. Pat. No. 5,837,464 (International Publication Number WO 97/27319) which is hereby incorporated by reference in its entirety. This retroviral vector was further modified to allow insertion of either the entire pol gene (POL) or the portion of pol encoding amino acids 319-440 of reverse transcriptase, the RNase H portion of reverse transcriptase, and integrase (RHIN) by engineering an Xho1 restriction enzyme recognition site into vif. Prior to doing this, an Xho 1 site in nef was deleted. Test vectors (TVs) were constructed by incorporating amplified POL or RHIN into the IGVV by using ApaI and Xho1 or PinAI and Xho1 restriction sites respectively. TVs were prepared as libraries (pools) in order to capture and preserve the pol or RHN sequence heterogeneity of the virus in the patient. […]
Susceptibility tests were carried out with the TV libraries by using viral particles comprising the RTV libraries to infect a host cell in which the expression of the indicator gene is measured. The amount of indicator gene (luciferase) activity detected in infected cells is used as a direct measure of “infectivity,” i.e., the ability of the virus to complete a single round of replication. Thus, drug resistance or sensitivity can be determined by plotting the amount of luciferase activity produced by patient derived viruses in the presence of varying concentrations of the antiviral drug. By identifying the concentration of drug at which luciferase activity is half-maximum, the IC50 of the virus from which patient-derived segment(s) were obtained for the antiretroviral agent can be determined. […]

[2] = tested on: HIV isolated from treatment-naïve patients (RHIN segment); test: Anti-HIV drug susceptibility assay (luciferase test vectors, 293 cells), patient-derived RHIN segment
Description: (§1) Patient-derived segment(s) corresponding to either the entire pol gene, encoding HIV protease, reverse transcriptase, integrase, and RNAse H (hereinafter “POL”), or the portion of pol encoding amino acids 319-440 of reverse transcriptase, integrase, and RNAse H (hereinafter “RHIN”), were amplified by the reverse transcription-polymerase chain reaction method (RT-PCR) using viral RNA isolated from viral particles present in the plasma or serum of HIV-infected individuals as follows. Virus was pelleted by centrifugation at 20,400×g for 60 min from plasma (typically, 1 ml) prepared from blood samples collected in evacuated tubes containing either EDTA, acid-citrate dextrose, or heparin as an anticoagulant. Virus particles were disrupted by resuspending the pellets in 200 μl of lysis buffer (4 M guanidine thiocyanate, 0.1 M Tris HCl [pH 8.0], 0.5% sodium lauryl sarcosine, 1% dithiothreitol). RNA was extracted from viral lysates by using oligo(dT) linked to magnetic beads (Dynal, Oslo, Norway). Reverse transcription was performed with Superscript III (Invitrogen) at 50 degrees for 1 hour using primer 1.
From the resultant cDNA either POL or RHIN sequences were amplified using the Advantage High Fidelity PCR kit (BD Biosciences; Clontech). POL amplification products are made using forward Primer 3 containing an ApaI site and reverse Primer 4 containing a Xho 1 site. RHIN amplification products are made using forward Primer 2 containing a PINA1 site and reverse Primer 4 containing a Xho 1 site.
A retroviral vector designed to measure antiretroviral drug susceptibility was constructed by using an infectious molecular clone of HIV-1. The vector, referred to herein as an indicator gene viral vector (IGVV), is replication defective and contains a luciferase expression cassette inserted within a deleted region of the envelope (env) gene. The IGVV is described in U.S. Pat. No. 5,837,464 (International Publication Number WO 97/27319) which is hereby incorporated by reference in its entirety. […]

[3] = tested on: HIV isolated from treatment-naïve patients (POL segment); test: Anti-HIV drug susceptibility assay (luciferase test vectors, 293 cells), patient-derived POL segment; details: 30 clinical isolates from treatment-naïve patients, FIG. 5
Description: as §1
From the resultant cDNA either POL or RHIN sequences were amplified using the Advantage High Fidelity PCR kit (BD Biosciences; Clontech). POL amplification products are made using forward Primer 3 containing an ApaI site and reverse Primer 4 containing a Xho 1 site. […]

[4] = 30 clinical isolates from treatment-naïve patients, RHIN segment, FIG. 5

Q: How did the “susceptibility (IC50 relative to HIV strain IIIB)” value ([1]; site-directed integrase mutant N155S) turn out when `O=C(NCc1ccc(F)cc1)c1nc(N2CCCCS2(=O)=O)c2cccnc2c1O` [L-870,810] was run?
A: reduced susceptibility

Q: What about the “susceptibility (IC50 relative to HIV strain IIIB)” value ([1]; site-directed integrase mutant V72I/F121Y/T125K) of the same compound?
A: reduced susceptibility

Q: And the “susceptibility (IC50 relative to HIV strain IIIB)” value ([1]; site-directed integrase mutant)?
A: reduced susceptibility

Q: And the “mean fold change (FC) in IC50” value [2, 4]?
A: 0.86

Q: And the “median fold change (FC) in IC50” value [2, 4]?
A: 0.82

Q: And the “mean fold change (FC) in IC50 relative to HIV strain IIIb” value ([2]; RHIN sequences from 45 treatment-naïve patient viruses, FIG. 4)?
A: 0.83

Q: What about the “mean fold change (FC) in IC50” value [3] of the same compound?
A: 0.85

Q: What about the “median fold change (FC) in IC50” value [3] of the same compound?
A: 0.85
